These results are taken from PMC9071099, “Towards an advanced testing strategy for genotoxicity using image-based 2D and 3D HepG2 DNA damage response fluorescent protein reporters” (Mutagenesis, 2021).

Like-named read-outs stand apart in the source and are kept apart here.

In data set [1] the test system is p53 pathway activation (p53-GFP, p21-GFP, BTG2-GFP HepG2 reporters). The class given is cell-based. The following applies: for DDR (p21 and p53 activation): 3D, 4-day repeated dosing. On the procedure:
(§1) The HepG2 BAC-GFP reporters for human BTG2, p21 and p53 were generated previously and used to monitor the DDR ([14],[18]). Cells were maintained in DMEM high glucose (Gibco) supplemented with 10% (v/v) fetal bovine serum (FBS), 25 U/ml penicillin and 25 µg/ml streptomycin (referred to as normal DMEM medium) at 37°C and 5% CO2. The reporter cells were tested between passages 19–21 throughout the data presented (Supplementary Figure 1, available at Mutagenesis Online).
(§2) Two different compound exposure scenarios were performed: a single exposure in 2D and a 4-day repeated exposure in 3D. A schematic overview of the tested exposure scenarios for each HepG2 model has been depicted in Figure 1. For the single exposure scenario in 2D, medium was replaced by freshly diluted compound in medium 24 h post seeding. DDRs were monitored after 24, 48 and 72 h by live cell confocal imaging (Figure 1A and B). For the 4-day repeated exposure scenario in 3D, each day medium was replaced by freshly diluted compound in medium for four consecutive days (Figure 1C and D). The imaging was started 24 h after the last exposure. For both scenarios, five compounds in eight concentrations were tested. DMSO, PBS or ultrapure H2O were used as solvent controls. The ATP-lite luminescence kit (Perkin Elmer) was used according to supplier’s protocol to measure cell viability. Measurements were performed 72 h or 24 h post single or repeated exposure, respectively. Absolute IC50 values have been calculated over the ATP-lite data by determining the intersect of the fitted concentration–response curve with the 50% viability baseline via GraphPad prism 8.1.1.
(§3) Prior to imaging, cells were stained with Hoechst 33342 at a concentration of 0.1 µg/ml to visualise the nuclei. To examine compound-induced cell death using confocal microscopy, propidium iodide (PI) was added during all compound exposures at a concentration of 100 µM to stain for necrotic or late apoptotic cells. The induction of GFP intensities and PI were monitored with a Nikon Eclipse Ti confocal laser microscope (Nikon, Amsterdam, The Netherlands), equipped with lasers at wavelengths 408, 488 and 561, an automated stage and perfect focus system at 37°C and 5% CO2. Images for 2D cultures were acquired with a Nikon 20x Dry Plan Apo VC NA 0.75 objective. Images for 3D cultures were acquired with a Nikon 10x Dry Plan Fluor NA 0.3 objective. For each condition, a z-stack of 9–11 images was generated with a step size of 30 µm.
(§4) For 2D cultures, image quantification was performed with Cell Profiler version 2.2.0 (Broad Institute, Cambridge, USA) using modules described previously ([14]). Nuclei segmentation based on Hoechst was done in ImageJ using an in-house developed macro based on the watershed masked clustering algorithm ([27]). Segmentation of the cytoplasmic area was done using the Distance N method expanding the edges of nuclear objects with six pixels followed by subtraction of the nuclear area. p21 and p53-GFP intensities were measured in the nuclei and BTG2-GFP in the cytoplasm. The PI-positive cells were identified by an overlay of the PI signal and the segmented nuclei. A cell was considered positive when there was at least 10% overlap. Results were stored in HDF5 format ([28]). To extract summarised data for further analysis and visualisation, in-house developed R-scripts were used in RStudio (version 1.0.153) (Boston, MA, USA) ([29–31]). The mean nuclear and cytoplasmic intensities of all measured single cells and the fraction of PI-positive cells for each image were extracted as output from the HDF5 files.
(§5) For 3D cultures, the NIS Elements analysis software (Nikon, Amsterdam, The Netherlands) was used to quantify the GFP intensity and PI-positive area within spheroids.

Data set [2] relates to BTG2-GFP HepG2 reporter. It counts as cell-based. On the procedure: as §1, §2, §3, §4, §5
Data set [3] relates to p53-GFP HepG2 reporter. The experiment in a line: p53-GFP reporter activation, live cell confocal imaging. It counts as cell-based, human. The settings on record: 2D, normal DMEM medium. On the procedure: as §1
Two different compound exposure scenarios were performed: a single exposure in 2D and a 4-day repeated exposure in 3D. A schematic overview of the tested exposure scenarios for each HepG2 model has been depicted in Figure 1. For the single exposure scenario in 2D, medium was replaced by freshly diluted compound in medium 24 h post seeding. DDRs were monitored after 24, 48 and 72 h by live cell confocal imaging (Figure 1A and B). […] The ATP-lite luminescence kit (Perkin Elmer) was used according to supplier’s protocol to measure cell viability. […]
Prior to imaging, cells were stained with Hoechst 33342 at a concentration of 0.1 µg/ml to visualise the nuclei. […] The induction of GFP intensities and PI were monitored with a Nikon Eclipse Ti confocal laser microscope (Nikon, Amsterdam, The Netherlands), equipped with lasers at wavelengths 408, 488 and 561, an automated stage and perfect focus system at 37°C and 5% CO2. […]

The subject of data set [4] is PHH. On the set-up: method as in PMID 32318794. The following applies: cited from earlier work.

With `Cc1c(-c2ccc(-c3ccccc3F)cc2)nc2ccc(F)cc2c1C(=O)O` [Brequinar], the “DDR (p21 and p53 activation)” value in data set [1] (AAGLY medium) is “induced a DDR (p21 and p53 activation) at the highest concentration”; in data set [1] (normal DMEM medium), “not seen”. Further, the DDR entry in data set [1] (24 h after exposure) was “no DDR was observed”. In addition, in data set [2] (four culture conditions), the “BTG2-GFP response across culture conditions” value is reported as “only induced BTG2-GFP responses in the proliferating HepG2 cultured in 2D in normal DMEM medium”. The “maximal p53 induction compared to other reporters” value in data set [3] is recorded as ~ 3 fold.
On to `N.N.[Cl][Pt][Cl]` [Cisplatin], for which the “DDR detection (PoD)” value in data set [1] (2D culturing, AAGLY medium) is “could not be detected”. Besides, the “concentration giving clear reporter activation” value in data set [1] (AAGLY medium or 3D culture) is given as no less than 10 µM. In data set [1] (HepG2 2D, normal DMEM medium), the “PoD of reporter activation” value was in the range of 0.32 to 1.83 µM. The “concentration giving clear concentration-dependent reporter activation” value in data set [1] (all DNA damage reporters, 2D, normal DMEM medium) was no less than 0.46 µM. Besides, in data set [4], the “PoD (CometChip)” value is 6.3 µM.
For the molecule `Nc1ccn([C@@H]2O[C@H](CO)[C@@H](O)C2(F)F)c(=O)n1` [Gemcitabine], the “PoD of reporter activation” value in data set [1] was “did not induce a quantifiable genotoxic effect”; in data set [1] (human), no more than 0.028 µM. The “genotoxic effects (reporter activation)” value in data set [1] is recorded as “almost absent”. The “BTG2-GFP response across culture conditions” value in data set [2] (human) is listed as “only induced BTG2-GFP responses in the proliferating HepG2 cultured in 2D in normal DMEM medium”.
Consider Aflatoxin B1, for which, in data set [1], the “concentration at which reporter induction was already observed” value is on record as 0.1 µM; the “induction of DNA damage reporters” value was “induced DNA damage reporters (BTG2, p21 and p53) in all culture conditions”; the reporter induction is reported as no more than 4.5 fold. In addition, the “concentration of peak BTG2-GFP induction” value in data set [2] turned out to be 10 µM.
